Data from patent US20250057805A1, “METHODS FOR ADDRESSING INJECTION SITE REACTIONS ASSOCIATED WITH THE ADMINISTRATION OF BEVEMIPRETIDE” (Stealth BioTherapeutics Inc., priority 2023, published 2025).

Tests used:
human MRGPRX2 [1] = target: T1, human MRGPRX2 (Homo sapiens, UniProt Q96LB1); experiment: Calcium mobilization (Fluo-4 AM) in MRGPRX2 expressing Chem-1 cells; type: cell-based; set-up: host or cells: Chem-1 cells (G418-selected); conditions: for activation of the MRGPRX2 expressing cells (calcium response): MRGPRX2 expressing Chem-1 cells, FIG. 5A, FIG. 6; for inhibition of the activation of the MRGPRX2 receptor caused by bevemipretide: MRGPRX2 expressing cells with 100 μM of bevemipretide, FIGS. 7A and 7B
T1 sequence (Q96LB1 1-330): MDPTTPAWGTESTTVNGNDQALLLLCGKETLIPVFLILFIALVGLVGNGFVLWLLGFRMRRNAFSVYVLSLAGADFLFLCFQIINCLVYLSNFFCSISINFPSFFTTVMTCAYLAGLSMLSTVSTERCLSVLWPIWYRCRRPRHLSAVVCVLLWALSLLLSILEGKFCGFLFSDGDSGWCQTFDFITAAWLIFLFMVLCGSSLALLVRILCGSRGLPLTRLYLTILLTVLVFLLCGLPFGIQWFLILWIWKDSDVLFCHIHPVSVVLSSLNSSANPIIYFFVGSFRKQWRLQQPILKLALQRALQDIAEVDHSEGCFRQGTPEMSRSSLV
Description: (§1) MRGPRX2 expressing and control (non-MRGPRX2 expressing) Chem-1 cells lines were obtained from Discovery Services, EuroFins. Cells were cultured in Dulbecco's Modified Eagle Medium (DMEM) high glucose medium (4.5 g/L) with 10% fetal bovine serum (FBS), non-essential amino acids, and N-2-hydroxyethylpiperazine-N′-2-ethanesulfonic acid (HEPES) buffer (pH 7.0-7.6). Geneticin (G418) was used for selection of MRGPRX2-expressing Chem-1 cells. Cells were maintained at 37° C. at 5% CO2. Cells were seeded to a glass bottom 96-well plates at a density of 50,000 per well (Cellvis). Cells were loaded with Fluo-4 AM for 30 minutes at 37° C. at a concentration of 2.5 μM. Cells were washed once with Dulbecco's phosphate buffered saline (DPBS). Cells were rested at room temperature for 30 minutes before use and washed with DPBS. Cells were resuspended in 50 μL phosphate buffered saline (PBS) with calcium and magnesium. To stimulate cells, 50 μL of 2× drug (bevemipretide or leuprolide) or DPBS as a control. Plates were read immediately with a Biotek plate reader. Readings were taken every 6 seconds for 2 minutes.
(§2) This assay was designed as a calcium-based readout of receptor activity.

[2] = test system: control (non-MRGPRX2 expressing) Chem-1 cells; experiment: Calcium mobilization (Fluo-4 AM) in control Chem-1 cells lacking the MRGPRX2 receptor; type: cell-based, human; conditions: parent Chem-1 cells lacking MRGPRX2; FIG. 5B
Description: as §1, §2

[3] = Long term toxicology studies in rats, subcutaneous administration; type: in vivo
human MRGPRX2 [4] = target: T1, human MRGPRX2; experiment: Fluo-4 calcium assay in HEK293 cells stably expressing human MRGPRX2 and Galpha15 (fluorescent plate reader); type: cell-based; set-up: expressed in transfected cells; host or cells: clonal HEK293 cell line; conditions: calcium response, multiple runs, FIG. 4
Description: A clonal HEK293 cell line stably expressing human MRGPRX2 and Galpha15 was used for the assay, which was performed using a fluorescent plate reader. Cells were plated at 40,000 cells per well in a glass-bottom 96 well plate 20 hours before the assay. Cells were loaded with N-[4-[6-[(Acetyloxy)methoxy]-2,7-difluoro-3-oxo-3H-xanthen-9-yl]-2-[2-[2-[bis[2-[(acetyloxy)methoxy]-2-oxoethyl]amino]-5-methylphenoxy]ethoxy]phenyl]-N-[2-[(acetyloxy)methoxy]-2-oxoethyl]glycine (acetyloxy)methyl ester (Fluo-4 AM) for 45 minutes at 37°° C. and allowed to rest for 30 minutes before use. Baseline fluorescence was calculated as the average of a 30 second read, with data points taken at 5 second intervals. Response was defined as the maximum signal within 90 seconds after addition of bevemipretide, subtracted by the baseline fluorescence signal. Concentrations were tested in duplicate and the assay was run 6 times. The curve was calculated as a four-parameter non-linear fit with variable slope. Traces were obtained using the same cell line and same Fluo-4 AM loading protocol but were imaged using a fluorescence microscope using a standard fluorescein isothiocyanate (FITC) filter. Fluorescence for different cells was calculated using region of interest selections.

[5] = Phase 1 human clinical trial, subcutaneous administration; type: in vivo; conditions: phase 1, subcutaneous administration
[6] = Long term toxicology studies of non-human primates; type: in vivo

Row | Compound | activation of the MRGPRX2 expressing cells (calcium response) (human MRGPRX2 [1]) | effect on cells lacking the MRGPRX2 receptor (calcium response) [2] | inhibition of the activation of the MRGPRX2 receptor caused by bevemipretide (human MRGPRX2 [1]) | further results
1 | C[C@H](CCC(=O)O)C[C@H](C)C[C@H](C)C(=O)/C=C(\O)[C@H](C)C[C@H](C)C/C=C/[C@@H](C)[C@@H](O)[C@@H](C)[C@@H](O)C[C@@H]1CC[C@@](C)([C@H]2CC[C@@](C)([C@@H](C)O)O2)O1 [Ionomycin, reference compound] | generates a calcium response | generates a calcium response |  | 
2 | Cc1cc(O)cc(C)c1C[C@H](NC(=O)[C@H](N)CCCNC(=N)N)C(=O)N[C@@H](CCCCN)c1nc(Cc2ccccc2)no1 [bevemipretide] | dose dependent activation | no effect |  | injection site reactions [3]: injection site reactions were observed from subcutaneous administration; some being severe at the higher dose levels administered; EC50 (human MRGPRX2 [4]): 43.8 to 54.1 µM; injection site reactions [5]: injection site reactions were observed as an adverse event; injection site reactions [6]: generally not severe even at the highest dosages tested
3 | CCNC(=O)[C@@H]1CCCN1C(=O)[C@H](CCCNC(=N)N)NC(=O)[C@H](CC(C)C)NC(=O)[C@@H](CC(C)C)NC(=O)[C@H](Cc1ccc(O)cc1)NC(=O)[C@H](CO)NC(=O)[C@H](Cc1c[nH]c2ccccc12)NC(=O)[C@H](Cc1c[nH]cn1)NC(=O)[C@@H]1CCC(=O)N1 [leuprolide] | dose dependent activation |  |  | 
4 | C[C@@H]1C[C@H]2[C@@H]3CCC4=CC(=O)C=C[C@]4(C)[C@@]3(Cl)[C@@H](O)C[C@]2(C)[C@@]1(O)C(=O)CCl [monetasone, mometasone] |  |  | in a dose-dependent manner, inhibit the activation | 
5 | O=c1c(O)c(-c2ccc(O)c(O)c2)oc2cc(O)cc(O)c12 [quercetin, 3,3′,4′,5,7-pentahydroxyflavone] |  |  | in a dose-dependent manner, inhibit the activation | 
